The values below come from article PMC11016868 (Computational and Structural Biotechnology Journal, 2024).

The assay has as its system M. marinum (NTUH-M6885). As to the kind of experiment: Minimum inhibitory concentration, broth microdilution. It is filed as cell-based. Conditions: Mycobacterium marinum, 7H9 broth, 28 °C.

≈ marks a conversion by molar mass, not a printed value.

With `O=C(O)c1cn(C2CC2)c2cc(N3CCNCC3)c(F)cc2c1=O` [ciprofloxacin], the MIC (in general, the lowest concentration found to suppress growth) was 8 µg/mL (≈ 24.1 µM).
The figure for `CO[C@H]1/C=C/O[C@@]2(C)Oc3c(C)c(O)c4c(O)c(c(/C=N/N5CCN(C)CC5)c(O)c4c3C2=O)NC(=O)/C(C)=C\C=C\[C@H](C)[C@H](O)[C@@H](C)[C@@H](O)[C@@H](C)[C@H](OC(C)=O)[C@@H]1C` [rifampicin] is 2 µg/mL (≈ 2.43 µM).
